Values of other authors, collected in patent US20040057977A1, “Water-based pest bait compositions having water-sensitive insecticides and methods of making and use thereof” (priority 1999, published 2004).

Legend:
[1] = tested on: cockroaches; settings: in vivo
[2] = in vivo

Q: Which “time to kill cockroaches” value [1] does the source give for `COP(=O)(NC(C)=O)SC` (stereo not drawn) [Acephate, O,S-dimethyl acetylphosphoramidothioate] here?
A: within about two hours

Q: Which “time to kill cockroaches” value [1] does the source give for `OB(O)O` [boric acid] here?
A: roughly one week

Q: And the “eye and lung irritation” value [2]?
A: slight eye and lung irritation
